Values quoted from earlier work, collected in patent US9308243B2, “Cellular enhancements in biological systems through the use of li-pofullerene and peptide group combinations” (LivePet, LLC, priority 2014, dated 2016).

Test system: male flies
Settings: tiny amount added to food supply

## NCCC(=O)N[C@@H](Cc1c[nH]cn1)C(=O)O [carnosine, L-Carnosine]
  increase in the average life span: 20%
